Measured values: patent US20220315554A1, “COMPOUNDS COMPRISING A […] LIGAND AND USE THEREOF” (priority 2019, published 2022)
Numbered stars: 1 amine (or outer) side, 2 acyl side, 3 side chain; on linkers, the order of the positions; unused ones are H or OH. Bridge positions count the residues as written; N and C are the ends. Square brackets hold non-standard residues; d marks the D form. Peptide text beside a SMILES is read from it. ξ: configuration not given here. mXylylene = c1cc(C[*:1])cc(C[*:2])c1; αMeF = C[C@](N)(Cc1ccccc1)C(=O)O; 4Pal = N[C@@H](Cc1ccncc1)C(=O)O; Aic = NC1(C(=O)O)Cc2ccccc2C1; ξM = CSCCC(N)C(=O)O

Key:
[1] = Plasma stability assay, mouse plasma; assay type: in vitro ADME; conditions: 4 h incubation, 37° C., read-out: % intact compound remaining after incubation, Mouse plasma
[2] = biological target: T1, FAP-expressing human WI-38 fibroblasts (Homo sapiens, UniProt Q12884); test: Competitive FACS binding assay; conditions: pIC50 Category (FACS), competition with 3 nM Cy5-labeled compound, WI-38 fibroblasts, 4° C., 1 hour
T1 construct: FAP-expressing human WI-38 fibroblasts (ECACC) were cultured in EMEM; host or cells: WI-38 human fibroblasts
T1 sequence (Q12884 1-760): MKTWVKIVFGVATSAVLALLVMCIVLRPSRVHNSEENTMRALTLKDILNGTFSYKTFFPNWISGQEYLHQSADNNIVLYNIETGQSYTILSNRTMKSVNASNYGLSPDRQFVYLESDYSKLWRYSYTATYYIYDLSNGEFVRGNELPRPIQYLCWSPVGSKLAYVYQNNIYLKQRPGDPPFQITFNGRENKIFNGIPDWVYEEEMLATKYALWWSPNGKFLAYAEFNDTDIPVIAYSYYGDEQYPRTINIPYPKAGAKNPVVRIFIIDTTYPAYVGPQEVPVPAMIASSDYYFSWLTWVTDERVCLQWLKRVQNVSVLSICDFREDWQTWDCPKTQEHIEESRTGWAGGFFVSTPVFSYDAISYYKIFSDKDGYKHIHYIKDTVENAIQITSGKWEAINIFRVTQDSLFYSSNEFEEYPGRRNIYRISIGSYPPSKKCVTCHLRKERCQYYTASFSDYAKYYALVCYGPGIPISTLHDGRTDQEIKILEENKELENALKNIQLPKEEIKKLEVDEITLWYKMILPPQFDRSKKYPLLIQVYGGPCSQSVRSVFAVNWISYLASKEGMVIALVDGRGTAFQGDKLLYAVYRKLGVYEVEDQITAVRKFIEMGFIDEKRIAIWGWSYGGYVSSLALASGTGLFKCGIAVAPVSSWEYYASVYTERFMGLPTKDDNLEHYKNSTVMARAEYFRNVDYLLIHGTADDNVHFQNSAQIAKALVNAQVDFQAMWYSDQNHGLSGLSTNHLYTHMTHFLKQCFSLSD
Method: Cells were analyzed in an Attune NxT flow cytometer. […]

Human recombinant FAP = biological target: T2, Human recombinant FAP (Homo sapiens, UniProt Q12884); test: FRET-based FAP protease activity assay; assay type: biochemical; design: purchased R&D systems 3715-SE; conditions: pIC50 Category (Activity), recombinant human FAP, FRET substrate, 37° C.
T2 sequence (Q12884 1-760): T1 sequence (Q12884 1-760)

Row | remaining at 4 h, 9.8 µM [1] [%] | IC50 [2] [nM] | IC50 (Human recombinant FAP) [nM] | SMILES
1 | 93 | < 10 | < 10 | CSCCC(N)C(=O)N[C@H]1CSCc2cccc(c2)CSC[C@@H](C(=O)N[C@@H](CC(=O)O)C(=O)N[C@@H](Cc2c[nH]cn2)C(=O)N[C@@H](Cc2ccccc2)C(=O)N[C@@H](CCCNC(=N)N)C(=O)N[C@@H](CC(=O)O)C(N)=O)NC(=O)[C@H](Cc2ccccc2)NC(=O)[C@H](CCC(=O)O)NC(=O)[C@H]([C@@H](C)O)NC(=O)[C@@H]2CCCN2C(=O)[C@@H]2CCCN2C1=O (stereo partly drawn) [3BP-2976, H-met-[Cys(3MeBn)-Pro-Pro-Thr-Glu-Phe-Cys]-Asp-His-Phe-Arg-Asp-NH2] (H-[ξM]CPPTEFCDHFRD-NH2; linker 2-8 via mXylylene)
2 | 79 | 10 to 79.4 | 10 to 79.4 | CSCC[C@H](NC(C)=O)C(=O)N[C@H]1CSCc2cccc(c2)CSC[C@@H](C(=O)N[C@@H](CC(=O)O)C(=O)N[C@@H](Cc2c[nH]cn2)C(=O)N[C@@H](Cc2ccccc2)C(=O)N[C@@H](CCCNC(=N)N)C(=O)N[C@@H](CC(=O)O)C(N)=O)NC(=O)[C@H](Cc2ccccc2)NC(=O)[C@H](CCC(=O)O)NC(=O)[C@H]([C@@H](C)O)NC(=O)[C@H]2CCCN2C(=O)[C@@H]2CCCN2C1=O [3BP-3177, Ac-Met-[Cys(3MeBn)-Pro-pro-Thr-Glu-Phe-Cys]-Asp-His-Phe-Arg-Asp-NH2] (Ac-MCP[dP]TEFCDHFRD-NH2; linker 2-8 via mXylylene)
3 | 100 | – | – | CSCC[C@H](NC(C)=O)C(=O)N[C@@H]1CSCc2cccc(c2)CSC[C@H](C(=O)N[C@@H](CC(=O)O)C(=O)N[C@@H](Cc2c[nH]cn2)C(=O)N[C@@H](Cc2ccccc2)C(=O)N[C@@H](CCCNC(=N)N)C(=O)N[C@@H](CC(=O)O)C(N)=O)NC(=O)[C@H](Cc2ccccc2)NC(=O)[C@H](CCC(=O)O)NC(=O)[C@H]([C@@H](C)O)NC(=O)[C@@H]2CCCN2C(=O)[C@@H]2CCCN2C1=O [3BP-3181, Ac-Metqcys(3MeBn)-Pro-Pro-Thr-Glu-Phe-cys]-Asp-His-Phe-Arg-Asp-NH2] (Ac-M[dC]PPTEF[dC]DHFRD-NH2; linker 2-8 via mXylylene)
4 | 98 | 10 to 79.4 | 10 to 79.4 | CSCC[C@H](NC(C)=O)C(=O)N[C@H]1CSCc2cccc(c2)CSC[C@@H](C(=O)N[C@H](CC(=O)O)C(=O)N[C@@H](Cc2c[nH]cn2)C(=O)N[C@@H](Cc2ccccc2)C(=O)N[C@@H](CCCNC(=N)N)C(=O)N[C@@H](CC(=O)O)C(N)=O)NC(=O)[C@H](Cc2ccccc2)NC(=O)[C@H](CCC(=O)O)NC(=O)[C@H]([C@@H](C)O)NC(=O)[C@@H]2CCCN2C(=O)[C@@H]2CCCN2C1=O [3BP-3183, Ac-Met-[Cys(3MeBn)-Pro-Pro-Thr-Glu-Phe-Cys]-asp-His-Phe-Arg-Asp-NH2] (Ac-MCPPTEFC[dD]HFRD-NH2; linker 2-8 via mXylylene)
5 | 97 | < 10 | < 10 | CSCC[C@H](NC(C)=O)C(=O)N[C@H]1CSCc2cccc(c2)CSC[C@@H](C(=O)N[C@@H](CC(=O)O)C(=O)N[C@@H](Cc2c[nH]cn2)C(=O)N(C)[C@@H](Cc2ccccc2)C(=O)N[C@@H](CCCNC(=N)N)C(=O)N[C@@H](CC(=O)O)C(N)=O)NC(=O)[C@H](Cc2ccccc2)NC(=O)[C@H](CCC(=O)O)NC(=O)[C@H]2NC(=O)[C@@H]3C(CCN3C(=O)[C@@H]3CCCN3C1=O)[C@H]2O [3BP-3188, Ac-Met-[Cys(3MeBn)-Pro-Pro-Thr-Glu-Phe-Cys]-Asp-His-Nmf-Arg-Asp-NH2]
6 | 100 | < 10 | < 10 | CSCC[C@H](NC(C)=O)C(=O)N[C@H]1CSCc2cccc(c2)CSC[C@@H](C(=O)N[C@@H](CC(=O)O)C(=O)N[C@@H](Cc2c[nH]cn2)C(=O)N2Cc3ccccc3C[C@H]2C(=O)N[C@@H](CCCNC(=N)N)C(=O)N[C@@H](CC(=O)O)C(N)=O)NC(=O)[C@H](Cc2ccccc2)NC(=O)[C@H](CCC(=O)O)NC(=O)[C@H]2NC(=O)[C@@H]3C(CCN3C(=O)[C@@H]3CCCN3C1=O)[C@H]2O [3BP-3189, Ac-Met-[Cys(3MeBn)-Pro-Pro-Thr-Glu-Phe-Cys]-Asp-His-Tic-Arg-Asp-NH2]
7 | 88 | < 10 | < 10 | CSCC[C@H](NC(C)=O)C(=O)N[C@H]1CSCc2cccc(c2)CSC[C@@H](C(=O)N[C@@H](CC(=O)O)C(=O)N[C@@H](Cc2c[nH]cn2)C(=O)NC2(C(=O)N[C@@H](CCCNC(=N)N)C(=O)N[C@@H](CC(=O)O)C(N)=O)Cc3ccccc3C2)NC(=O)[C@H](Cc2ccccc2)NC(=O)[C@H](CCC(=O)O)NC(=O)[C@H]([C@@H](C)O)NC(=O)[C@@H]2CCCN2C(=O)[C@@H]2CCCN2C1=O [3BP-3190, Ac-Met-[Cys(3MeBn)-Pro-Pro-Thr-Glu-Phe-Cys]-Asp-His-Aic-Arg-Asp-NH2] (Ac-MCPPTEFCDH[Aic]RD-NH2; linker 2-8 via mXylylene)
8 | 100 | < 10 | < 10 | CSCC[C@H](NC(C)=O)C(=O)N[C@H]1CSCc2cccc(c2)CSC[C@@H](C(=O)N[C@@H](CC(=O)O)C(=O)N[C@@H](Cc2c[nH]cn2)C(=O)N[C@@H](Cc2ccncc2)C(=O)N[C@@H](CCCNC(=N)N)C(=O)N[C@@H](CC(=O)O)C(N)=O)NC(=O)[C@H](Cc2ccccc2)NC(=O)[C@H](CCC(=O)O)NC(=O)[C@H]([C@@H](C)O)NC(=O)[C@@H]2CCCN2C(=O)[C@@H]2CCCN2C1=O [3BP-3191, Ac-Met-[Cys(3MeBn)-Pro-Pro-Thr-Glu-Phe-Cys]-Asp-His-Ppa-Arg-Asp-NH2] (Ac-MCPPTEFCDH[4Pal]RD-NH2; linker 2-8 via mXylylene)
9 | 87 | < 10 | < 10 | CSCC[C@H](NC(C)=O)C(=O)N[C@H]1CSCc2cccc(c2)CSC[C@@H](C(=O)N[C@@H](CC(=O)O)C(=O)N[C@@H](Cc2c[nH]cn2)C(=O)N[C@@H](C)C(=O)N[C@@H](CCCNC(=N)N)C(=O)N[C@@H](CC(=O)O)C(N)=O)NC(=O)[C@H](Cc2ccccc2)NC(=O)[C@H](CCC(=O)O)NC(=O)[C@H]([C@@H](C)O)NC(=O)[C@@H]2CCCN2C(=O)[C@@H]2CCCN2C1=O [3BP-3196, Ac-Met-[Cys(3MeBn)-Pro-Pro-Thr-Glu-Phe-Cys]-Asp-His-Ala-Arg-Asp-NH2] (Ac-MCPPTEFCDHARD-NH2; linker 2-8 via mXylylene)
10 | 100 | < 10 | < 10 | CSCC[C@H](NC(C)=O)C(=O)N[C@H]1CSCc2cccc(c2)CSC[C@@H](C(=O)N[C@@H](CC(=O)O)C(=O)N[C@@H](Cc2c[nH]cn2)C(=O)N[C@@](C)(Cc2ccccc2)C(=O)N[C@@H](CCCNC(=N)N)C(=O)N[C@@H](CC(=O)O)C(N)=O)NC(=O)[C@H](Cc2ccccc2)NC(=O)[C@H](CCC(=O)O)NC(=O)[C@H]([C@@H](C)O)NC(=O)[C@@H]2CCCN2C(=O)[C@@H]2CCCN2C1=O [3BP-3203, Ac-Met-[Cys(3MeBn)-Pro-Pro-Thr-Glu-Phe-Cys]-Asp-His-Amf-Arg-Asp-NH2] (Ac-MCPPTEFCDH[αMeF]RD-NH2; linker 2-8 via mXylylene)
11 | 100 | < 10 | < 10 | CSCC[C@H](NC(C)=O)C(=O)N[C@H]1CSCc2cccc(c2)CSC[C@@H](C(=O)N[C@@H](CC(=O)O)C(=O)N[C@H](Cc2c[nH]cn2)C(=O)N[C@@H](Cc2ccccc2)C(=O)N[C@@H](CCCNC(=N)N)C(=O)N[C@@H](CC(=O)O)C(N)=O)NC(=O)[C@H](Cc2ccccc2)NC(=O)[C@H](CCC(=O)O)NC(=O)[C@H]([C@@H](C)O)NC(=O)[C@@H]2CCCN2C(=O)[C@@H]2CCCN2C1=O [3BP-3210, Ac-Met-[Cys(3MeBn)-Pro-Pro-Thr-Glu-Phe-Cys]-Asp-his-Phe-Arg-Asp-NH2] (Ac-MCPPTEFCD[dH]FRD-NH2; linker 2-8 via mXylylene)
12 | 85 | < 10 | < 10 | CSCC[C@H](NC(C)=O)C(=O)N[C@H]1CSCc2cccc(c2)CSC[C@@H](C(=O)N[C@@H](CC(=O)O)C(=O)N[C@@H](Cc2c[nH]cn2)C(=O)N[C@H](Cc2ccccc2)C(=O)N[C@@H](CCCNC(=N)N)C(=O)N[C@@H](CC(=O)O)C(N)=O)NC(=O)[C@H](Cc2ccccc2)NC(=O)[C@H](CCC(=O)O)NC(=O)[C@H]([C@@H](C)O)NC(=O)[C@@H]2CCCN2C(=O)[C@@H]2CCCN2C1=O [3BP-3211, Ac-Met-[Cys(3MeBn)-Pro-Pro-Thr-Glu-Phe-Cys]-Asp-His-phe-Arg-Asp-NH2] (Ac-MCPPTEFCDH[dF]RD-NH2; linker 2-8 via mXylylene)
